# Tests used:
# anesthetized rats = assay: Acute cardiovascular and renal effects of an intravenous bolus in anesthetized rats (Example 1); type: in vivo, male Sprague-Dawley rats; conditions: 33.5 μmoles/kg intravenous bolus
# Protocol: Animals. This study employed male Sprague-Dawley rats (Charles River; Wilmington, Mass.) that were approximately 16 weeks old. The Institutional Animal Care and Use Committee approved all procedures.
# The rats were anesthetized with Inactin (90 mg/kg, i.p.) and placed on an isothermal pad, and body temperature was monitored with a rectal probe thermometer and maintained at 37° C. with a heat lamp. […] A PE-50 cannula was inserted into the jugular vein, and an infusion of 0.9% saline at 25 μl/min was initiated. A PE-10 tubing was placed in the left ureter for urine collection. […] The dose was selected based on preliminary experiments with 8-aminoguanosine. […] Each group of rats (n of at least 6) received only one treatment. Ten minutes after the test agents were administered, urine was collected for another 30 minutes (Period 2: […] into the protocol).
# Statistics. Absolute values are presented as the mean±SEM. Fold-increases were calculated as follows: Period 3 value÷Period 1 value. Statistical analyses were performed using analysis of variance (ANOVA) followed by Fisher's Least Significant Difference (LSD) test if the overall effects or interactions in the ANOVA were significant. P<0.05 was considered statistically significant.
# MCT-induced PH = assay: Monocrotaline (MCT)-induced pulmonary hypertension; type: in vivo, male Sprague Dawley rats; conditions: 30 mg/kg/day
# Protocol: Because PNPase metabolizes guanosine to guanine, the mechanism by which PNPase activity is associated with PH likely includes guanosine protection against PH. A total of 24 male Sprague Dawley rats were used to determine whether administration of guanosine attenuates the development of PH in animals with MCT-induced PH. Animals were randomly assigned for intraperitoneal (i.p.) injection with either a mixture of 1 ml of 1N HCl neutralized with 1.0 N NaOH and diluted with distillated water (10 ml/kg, Control group; n=8) or MCT (60 mg/kg, […]). The MCT (Sigma, St Louis, Mo.) was dissolved in 1N HCl at 100 mg/ml, which was neutralized with 1 N NaOH and diluted with distillated water to 6 mg/ml. Next, a subset of MCT rats (n=8) were assigned to receive guanosine (30 mg/kg/day). The rats were randomly assigned to the Control, MCT, or MCT+guanosine group.
# In this PH model, three weeks after MCT administration, mortality rapidly increases (Ren et al., J Pharmacol Exp Ther., 325:920-926, 2008; Seoane et al., Southern Medical Journal, 94:635-639, 2001). Therefore, animals were monitored for four weeks, and acute measurements of right ventricular pressure and morphometric analyses were performed. Twenty-eight days after administration of MCT, the animals were anesthetized and instrumented for right ventricular peak systolic pressure (RVPSP) measurement. Briefly, a PE-240 polyethylene catheter was inserted into the trachea to facilitate breathing. An angled Milliar Micro-tip pressure transducer catheter SPR-513 (Millar Instruments) was inserted into the right jugular vein and advanced into the right ventricle (RV) for RVPSP measurement. After 30-minutes of stabilization, RVPSP was recorded over 20 minutes. The animals were euthanized by anesthetic overdose, and the heart and lungs were collected for morphometric analyses.
# [1] = tested on: RBCs from SCD patients (HbSS); assay: Hypoxia-induced sickling of RBCs from SCD patients; type: cell-based, human; conditions: 2 μmol/L; 1.5 hours pre-incubation, then hypoxia for 3 hours
# Protocol: In addition to causing PH in SCD patients and HIV-infected patients, the contribution of PNPase to RBC sickling in SCD patients was assessed. Fresh RBCs were obtained from two adult SCD patients (HbSS); the RBCs were diluted in F-10 HAM buffer to a final hematocrit of 4%. Next, glucose was added for a final concentration of 5.5 mmol/L, and the samples were incubated at room air/temperature in 12-well plates. The RBCs were then treated with either vehicle, 8-aminoguanosine (2 μmol/L), inosine (2 μmol/L), or an 8-aminoguanosine and inosine combination. After 1.5 hours, the RBCs were placed in a hypoxic glove box and maintained under hypoxia (5% 02) for 3 hours, while undergoing mild agitation. At the end of incubation, to prevent reoxygenation-derived morphological changes, the RBCs were fixed under hypoxic conditions in the hypoxic glove box. The samples were assayed for percent sickling.
# [2] = Period 3 compared with Period 1
smiles,measurement,setting,value
"Nc1nc2c(nc(O)n2[C@@H]2O[C@H](CO)[C@@H](O)[C@H]2O)c(=O)[nH]1 [8-hydroxyguanosine, 8-Hydroxyguanosine]",efficacy grouping (diuretic/natriuretic),anesthetized rats,moderate efficacy
same,sodium excretion increase,anesthetized rats; [2],7.1 fold
"NC(N)=NC(=O)c1nc(Cl)c(N)nc1N [amiloride, Amiloride, reference compound]",effect on heart rate (HR),anesthetized rats,modestly decreased
same,effect on mean arterial blood pressure (MABP),anesthetized rats,modestly decreased
same,effect on mesenteric blood flow (MBF),anesthetized rats,modestly decreased
same,effect on renal blood flow (RBF),anesthetized rats,modestly decreased
same,urine volume increase,anesthetized rats; Period 3 (85-115 min) compared with Period 1 (0-30 min),4.5 fold
same,potassium excretion decrease,anesthetized rats; [2],96.5%
same,sodium excretion increase,anesthetized rats; [2],13.6 fold
same,effect on glucose excretion,anesthetized rats; in words,did not change
"Nc1nc2c(ncn2[C@@H]2O[C@H](CO)[C@@H](O)[C@H]2O)c(=O)[nH]1 [guanosine, Guanosine]",efficacy grouping (diuretic/natriuretic),anesthetized rats,little or no efficacy
same,"RV dysfunction (RV EDP, contractility index)",MCT-induced PH; 28 days after MCT,prevented
same,RV hypertrophy (RV mass),MCT-induced PH; 28 days after MCT,attenuated
same,inflammatory cell infiltration into the lungs (ED1+ cells),MCT-induced PH; 28 days after MCT,reduced
same,pulmonary vascular remodeling,MCT-induced PH; 28 days after MCT,attenuated
same,pulmonary hypertension (RVPSP),MCT-induced PH; 28 days after MCT 60 mg/kg,attenuated
"Nc1nc2[nH]c([N+](=O)[O-])nc2c(=O)[nH]1 [8-nitroguanine, 8-Nitroguanine]",efficacy grouping (diuretic/natriuretic),anesthetized rats,moderate efficacy
same,sodium excretion increase,anesthetized rats; [2],7.8 fold
"Nc1nc2[nH]c(O)nc2c(=O)[nH]1 [8-hydroxyguanine, 8-Hydroxyguanine]",efficacy grouping (diuretic/natriuretic),anesthetized rats,moderate efficacy
same,sodium excretion increase,anesthetized rats; [2],8.6 fold
Nc1nc2c(nc([N+](=O)[O-])n2[C@@H]2O[C@H](CO)[C@@H](O)[C@H]2O)c(=O)[nH]1 [8-nitroguanosine],efficacy grouping (diuretic/natriuretic),anesthetized rats,little or no efficacy
"O=c1[nH]cnc2c1ncn2[C@@H]1O[C@H](CO)[C@@H](O)[C@H]1O [inosine, Inosine]",hypoxia-induced sickling of RBCs,[1],significantly reduced
"Nc1nc2[nH]cnc2c(=O)[nH]1 [guanine, Guanine, reference compound]",efficacy grouping (diuretic/natriuretic),anesthetized rats,moderate efficacy
same,sodium excretion increase,anesthetized rats; [2],9.4 fold
Nc1nc2c(nc(O)n2[C@H]2C[C@H](O)[C@@H](CO)O2)c(=O)[nH]1 [8-hydroxy-2-deoxyguanosine],efficacy grouping (diuretic/natriuretic),anesthetized rats,little or no efficacy

# — patent US11103526B2, “Methods for treatment using small molecule potassium-sparing diuretics and natriuretics” (University of Pittsburgh—Of the Commonwealth System of …, priority 2016, dated 2021)
